Reference: US11986471B2, “Compounds and methods of use” (Tango Therapeutics, Inc., priority 2018, dated 2024)

Key:
Assay type in all cases: biochemical
PRMT5 [1] = molecular target: T1, PRMT5 (Homo sapiens, UniProt O14744); assay: PRMT5 IC50 assay in the presence of SAM as cofactor
T1 construct: purchased Viva (custom protein)
Source text: (§1) Table 1a indicates IC50 values (μM) against PRMT5 for exemplary compounds in the presence of SAM as cofactor, with no cofactor and with MTA as cofactor, respectively (columns 3-5). […] The Ki values can be calculated from the IC50 values as described in the Examples section. As detailed in the Examples section, for the assay performed in the presence of SAM, IC50=Ki×1.5 (Ki=IC50/1.5). For the assay performed in the presence of MTA, IC50=Ki×13.5 (Ki=IC50/13.5). Column 6 indicates the ratio between the Ki of compounds in the presence of SAM and the Ki of compounds in the presence of MTA

PRMT5 [2] = molecular target: T1, PRMT5; assay: PRMT5 IC50 assay with no cofactor
Source text: as §1

PRMT5 [3] = molecular target: T1, PRMT5; assay: PRMT5 IC50 assay in the presence of MTA as cofactor; settings: for IC50: PRMT5, MTA as cofactor
Source text: as §1

[4] = ratio between Ki in the presence of SAM and Ki in the presence of MTA
[5] = ratio between the Ki in the presence of SAM and the Ki in the presence of MTA

T1 sequence (O14744 whole entry): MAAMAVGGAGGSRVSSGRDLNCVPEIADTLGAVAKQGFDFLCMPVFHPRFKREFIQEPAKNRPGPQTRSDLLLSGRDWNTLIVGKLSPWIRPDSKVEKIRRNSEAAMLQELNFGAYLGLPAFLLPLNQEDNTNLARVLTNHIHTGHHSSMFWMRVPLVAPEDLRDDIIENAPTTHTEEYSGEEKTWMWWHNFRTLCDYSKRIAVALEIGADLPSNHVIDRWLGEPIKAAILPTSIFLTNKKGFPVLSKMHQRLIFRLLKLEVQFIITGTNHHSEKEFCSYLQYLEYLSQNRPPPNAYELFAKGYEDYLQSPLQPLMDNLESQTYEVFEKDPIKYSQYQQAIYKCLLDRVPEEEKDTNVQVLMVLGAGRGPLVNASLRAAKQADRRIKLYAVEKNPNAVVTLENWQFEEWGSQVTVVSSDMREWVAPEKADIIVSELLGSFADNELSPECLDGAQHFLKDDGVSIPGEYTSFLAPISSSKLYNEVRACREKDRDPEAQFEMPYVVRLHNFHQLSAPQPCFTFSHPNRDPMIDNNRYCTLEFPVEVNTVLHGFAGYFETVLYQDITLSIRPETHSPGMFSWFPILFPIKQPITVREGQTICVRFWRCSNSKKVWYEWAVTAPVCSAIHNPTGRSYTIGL
T1 sequence (Q9BQA1 whole entry partner): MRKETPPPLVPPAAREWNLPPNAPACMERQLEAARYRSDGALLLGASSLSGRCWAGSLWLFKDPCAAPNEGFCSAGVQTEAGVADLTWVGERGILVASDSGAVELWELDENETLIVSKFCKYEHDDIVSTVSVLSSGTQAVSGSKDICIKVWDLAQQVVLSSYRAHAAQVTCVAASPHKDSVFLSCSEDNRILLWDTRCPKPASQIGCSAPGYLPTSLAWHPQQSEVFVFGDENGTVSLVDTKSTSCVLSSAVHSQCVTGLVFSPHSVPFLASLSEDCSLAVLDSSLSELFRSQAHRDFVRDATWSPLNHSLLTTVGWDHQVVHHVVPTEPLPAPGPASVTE

Row | Structure (SMILES) | IC50 (PRMT5 [1]) | IC50 (PRMT5 [2]; read-out: No Co-factor IC50) | IC50 (PRMT5 [3]) | IC50 (PRMT5 [2]) | SAM/MTA Ratio (PRMT5 [3]; [4]) | SAM/MTA Ratio (PRMT5 [3]; [5])
1 | CC(=O)N1[C@@H]2CC[C@H]1C[C@@H](Nc1cc(C(=O)NC[C@H](O)CN3CCc4cc(OCc5ocnc5C)ccc4C3)ncn1)C2 [Compound 630, 6-{[(1R,3R,5S)-8-acetyl-8-azabicyclo[3.2.1]octan-3-yl]amino}-N-[(2S)-2-hydroxy-3-{6-[(4-methyl-1,3-oxazol-5-yl)methoxy]-1,2,3,4-tetrahydroisoquinolin-2-yl}propyl]pyrimidine-4-carboxamide] | 0.5 to 5 µM | ≥ 5 µM | 0.05 to 0.5 µM |  | A (a Ki ratio greater than or equal to 10 fold between the Ki in the presence of SAM and the Ki in the presence of MTA) | 
2 | COCCN(C)c1cc(NC2CCN(C(C)=O)CC2)cc(C(=O)NC[C@@H](O)CN2CCc3cc(OCc4ocnc4C)ccc3C2)c1 (single isomer, unassigned) [Compound 648] | 0.05 to 0.5 µM | ≥ 5 µM | 0.05 to 0.5 µM |  | A (a Ki ratio greater than or equal to 10 fold between the Ki in the presence of SAM and the Ki in the presence of MTA) | 
3 | O=C(NC[C@H](O)CN1CCc2c(ccc(OCc3cnn[nH]3)c2Cl)C1)c1ccnc(NC2CCC2)c1 [Compound 269, N-[(2S)-3-[5-chloro-6-(1H-triazol-5-ylmethoxy)-3,4-dihydro-1H-isoquinolin-2-yl]-2-hydroxy-propyl]-2-(cyclobutylamino)pyridine-4-carboxamide] | 0.5 to 5 µM | ≥ 5 µM | 0.5 to 5 µM |  | A (a Ki ratio greater than or equal to 10 fold between the Ki in the presence of SAM and the Ki in the presence of MTA) | 
4 | Cc1c(OCc2cnco2)ccc2c1CCN(C[C@@H](O)CNC(=O)c1cc(N[C@H]3C[C@H](C(=O)N4CCC4)C3)ncn1)C2 [Compound 519, N-[(2S)-2-hydroxy-3-{5-methyl-6-[(1,3-oxazol-5-yl)methoxy]-1,2,3,4-tetrahydroisoquinolin-2-yl}propyl]-6-{[(1r,3r)-3-(azetidine-1-carbonyl)cyclobutyl]amino}pyrimidine-4-carboxamide] | 0.5 to 5 µM |  | 0.5 to 5 µM | ≥ 5 µM |  | A (a Ki ratio greater than or equal to 10 fold between the Ki in the presence of SAM and the Ki in the presence of MTA)

The next lines start with results.

Row | IC50 (PRMT5 [1]) | IC50 (PRMT5 [2]; read-out: No Co-factor IC50) | IC50 (PRMT5 [3]) | IC50 (PRMT5 [2]) | Structure (SMILES) | SAM/MTA Ratio (PRMT5 [3]; [4]) | SAM/MTA Ratio (PRMT5 [3]; [5])
5 | 0.5 to 5 µM | ≥ 5 µM | 0.05 to 0.5 µM |  | Cc1ncoc1COc1ccc2c(c1)CCN(C[C@@H](O)CNC(=O)c1cc(NC3CCC3)nc(N3CCCCC3)c1)C2 [Compound 633, 2-(cyclobutylamino)-N-[(2S)-2-hydroxy-3-{6-[(4-methyl-1,3-oxazol-5-yl)methoxy]-1,2,3,4-tetrahydroisoquinolin-2-yl}propyl]-6-(piperidin-1-yl)pyridine-4-carboxamide] | A (a Ki ratio greater than or equal to 10 fold between the Ki in the presence of SAM and the Ki in the presence of MTA) | 
6 | 0.5 to 5 µM |  | 0.5 to 5 µM | ≥ 5 µM | Cc1c(OCc2cnco2)ccc2c1CCN(C[C@@H](O)CNC(=O)c1ccnc(N[C@H]3C[C@H](O)C3)c1)C2 [Compound 552, N—((S)-2-hydroxy-3-(5-methyl-6-(oxazol-5-ylmethoxy)-3,4-dihydroisoquinolin-2(1H)-yl)propyl)-2-(((1r,3S)-3-hydroxycyclobutyl)amino)isonicotinamide] |  | A (a Ki ratio greater than or equal to 10 fold between the Ki in the presence of SAM and the Ki in the presence of MTA)
7 | 0.5 to 5 µM |  | 0.5 to 5 µM | ≥ 5 µM | Cc1ncoc1COc1ccc2c(c1)[C@@H](O)CN(C[C@@H](O)CNC(=O)c1ccnc(NC3CCC3)c1)C2 (single isomer, unassigned) [Compound 505] |  | A (a Ki ratio greater than or equal to 10 fold between the Ki in the presence of SAM and the Ki in the presence of MTA)
